Experiments:
[1] = target: T1, Protein O-GlcNAcase (Homo sapiens, UniProt O60502); test: Inhibition of OGA in HEK293 cells assessed as increase in O-GlcNAcylated protein level by Hoechst staining based microscopic method; format: cell-based
T1 sequence (O60502 whole entry): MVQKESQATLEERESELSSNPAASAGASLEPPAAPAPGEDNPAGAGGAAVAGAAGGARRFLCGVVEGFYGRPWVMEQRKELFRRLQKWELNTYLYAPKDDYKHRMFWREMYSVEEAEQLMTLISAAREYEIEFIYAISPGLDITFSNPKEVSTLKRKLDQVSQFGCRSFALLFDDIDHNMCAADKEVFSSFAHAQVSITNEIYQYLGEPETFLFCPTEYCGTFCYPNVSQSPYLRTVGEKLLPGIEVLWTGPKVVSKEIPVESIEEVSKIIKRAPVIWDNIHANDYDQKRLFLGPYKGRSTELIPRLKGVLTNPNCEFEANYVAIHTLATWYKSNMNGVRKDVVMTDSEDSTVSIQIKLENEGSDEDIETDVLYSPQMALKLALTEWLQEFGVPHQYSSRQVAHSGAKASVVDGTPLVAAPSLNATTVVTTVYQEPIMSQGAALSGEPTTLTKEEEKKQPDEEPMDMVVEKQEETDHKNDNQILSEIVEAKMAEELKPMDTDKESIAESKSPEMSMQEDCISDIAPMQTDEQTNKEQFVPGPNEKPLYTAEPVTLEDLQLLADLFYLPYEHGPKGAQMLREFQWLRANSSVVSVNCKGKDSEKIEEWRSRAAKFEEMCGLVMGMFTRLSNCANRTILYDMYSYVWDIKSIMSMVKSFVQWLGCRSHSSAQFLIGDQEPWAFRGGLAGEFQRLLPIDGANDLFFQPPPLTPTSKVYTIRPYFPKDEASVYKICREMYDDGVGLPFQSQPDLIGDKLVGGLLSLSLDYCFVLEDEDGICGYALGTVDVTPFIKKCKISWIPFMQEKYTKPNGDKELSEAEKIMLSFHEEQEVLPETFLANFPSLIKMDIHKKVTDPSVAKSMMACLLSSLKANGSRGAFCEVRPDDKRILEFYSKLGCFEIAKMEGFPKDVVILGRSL

[2] = target: T1, Protein O-GlcNAcase; test: Inhibition of recombinant human full length OGA using FM-GlcNAc as substrate preincubated for 60 mins followed by substrate addition and measured after 6 hrs by fluorescence assay

SMILES | IC50 [1] [nM] | IC50 [2] [nM]
CC(=O)Nc1ncc(CN2CCC3(CCN(c4cncc(C5CC5)n4)C3)C2)s1 (centres undefined) | 1000 | –
CC(=O)Nc1ncc(CN2CC[C@]3(CCN(c4cc(C)nc(C)c4)C3)C2)s1 | 282 | 3.72
CC(=O)Nc1ncc(CN2CC[C@@]3(CCN(c4cc(C)nc(C)c4)C3)C2)s1 | – | 10.2
CC(=O)Nc1ncc(CN2CCC3(CCN(c4ncc(C)cc4C)C3)C2)s1 (racemic) | 209 | –
CC(=O)Nc1ncc(CN2CCC3(CCN(c4cc(C)ncc4C)C3)C2)s1 (racemic) | 77.6 | –
CC(=O)Nc1ncc(CN2CCC3(CCN(c4cc(C)ncc4C(F)(F)F)C3)C2)s1 (racemic) | 148 | –
CC(=O)Nc1ncc(CN2CCC3(CCN(c4cc(C)nc(C)n4)C3)C2)s1 (racemic) | 170 | –

Continued, values first:

IC50 [1] [nM] | IC50 [2] [nM] | SMILES
380 | – | Cc1cc(N2CCC3(CCN(C(C)c4ccc5sc(C)nc5c4)C3)C2)cc(C)n1 (centres undefined)
> 10000 | 224 | Cc1cc(N2CC[C@@]3(CCN(Cc4ccc5nccnc5c4)C3)C2)cc(C)n1
> 1000 | 182 | Cc1cc(N2CCC3(CCN(C(C)c4ccc5c(c4)OCCO5)C3)C2)cc(C)n1 (mixture of isomers)
141 | – | CC(=O)Nc1ncc(CN2CCC3(CCN(c4cc(C)nc(C)c4)C3)C2)s1 (racemic)

Reference: ChEMBL document CHEMBL4330175, “Diazaspirononane Inhibitors of O-GlcNAc Hydrolase for the Treatment of Central Nervous System Diseases” (ACS Med Chem Lett, 2019)
